Laboratory results published in US10143719B2, “Inhibitors of valosin-containing protein and methods of use” (CASE WESTERN RESERVE UNIVERSITY, priority 2015, dated 2018).
Residues, ends and D or L forms follow the SMILES beside them. *: point of attachment. Cbz = O=C(OCc1ccccc1)*

Tested on: Htt or mtHtt
Test: Htt/mtHtt protein levels after proteasome or VCP inhibitor
Type: cell-based, mouse
Conditions: HdhQ or HdhQ111 cells
Text: VCP plays a central role in protein degradation by binding to its substrates.

| SMILES | Htt or mtHtt protein levels |
| --- | --- |
| CC1(C)C(N(O)C(=O)Nc2ccc(Cl)cc2)N(c2ccc(Cl)cc2)C(=O)N1CC(=O)N/N=C/C=C/c1ccc([N+](=O)[O-])o1 (centres unmarked) [Eeyarestatin I] | did not affect Htt or mtHtt protein levels |
| CC(C)C[C@@H](C=O)NC(=O)[C@H](CC(C)C)NC(=O)[C@H](CC(C)C)NC(=O)OCc1ccccc1 [MG132] (Cbz-Leu-Leu-Leu-aldehyde) | did not affect Htt or mtHtt protein levels |
